These antisense oligonucleotides have a phosphorothioate backbone; sugars and methylation of C are not fully specified.
Further: test concentration or dose not given here.

The first series deals with PTPN6. The settings on record: ASO.
The sequence CGACTCCTGGCCCTTCTGCG returned a remaining target (mRNA or protein) (fraction of control) of 0.61.
For GCCAGGTGAGGAAGAACCGC, the remaining target (mRNA or protein) (fraction of control) is not below 1.
TTCAGTGATCCCAGGGCTTT: the remaining target (mRNA or protein) (fraction of control) was found to be 0.75.
The same measure, in the same setting: then GCGCCTGAGGCCTCCTCAAT, with 0.84; and AGGCTCTCACGCACAAGAAA, with 0.66; and ACCCACGGGACAGCATCTCT, with not below 1.
The sequence GTGCAGGTTCTCATACACAT came in with a remaining target (mRNA or protein) (fraction of control) of 0.64.
Same read-out and setting: to ACGGGACAGCATCTCTCTGT belongs 0.65; to CGTGAGGCTGTCGAAGGTCT, 0.9.
The same measure, in the same setting: then GATGAACTTGTACTGCGCCT, with 0.84; and TCAGCCGCATTCACCCTCGT, with 0.54.
On the same count and under the same terms, to CCCTGACGGAGAGCGAGAAG belongs not below 1.
GACCCCATGGTCGGGCCAGC: the remaining target (mRNA or protein) (fraction of control) was not below 1.
The same measure, in the same setting: to TCTCATCAGGGCCTAGCAGC belongs 0.74; to TGCCGGCGCTGCAGTGCACG, 0.85.

In another series the target is SMAD7. The following applies: ASO.
GGACTTGATGAAGATGGG: the remaining target (mRNA or protein) (fraction of control) was not below 1.
Still for that read-out and setting: then TGCCCAGGTACTGCCTCT, with 0.72; and ACTCACACACACTCCTGA, with 0.79; and CGAACATGACCTCCGCAC, with 0.52.
On to GGCAGCTGCTGATGAACT, for which the remaining target (mRNA or protein) (fraction of control) is 0.86.
The same measure, in the same setting: then CTCCGGCTGCCCCACCCC, with 0.52; and GCCGATTTTGCTCCGCAC, with 0.78.
Still for that read-out and setting: then AGGCGGCCGGGCAGCAGG, with not below 1; and GCTGTCCGTCGCCCCTTC, with 0.87; and AGTTCGCAGAGTCGGCTA, with 0.68.
As for TGGACACAGTAGAGCCTC, the remaining target (mRNA or protein) (fraction of control) was not below 1.
GTATGCCACCACGCACCA showed a remaining target (mRNA or protein) (fraction of control) not below 1.
The same measure, in the same setting: to GGACATCCCCGCTTGCTG belongs not below 1.
For the sequence AACCTTTGTAGTTAGAAA, the remaining target (mRNA or protein) (fraction of control) worked out at 0.94.
Consider TGCTTGGATTTCTGCTTC, for which the remaining target (mRNA or protein) (fraction of control) turned out to be 0.89.
Still for that read-out and setting: to ATTTCCAATGAGAATGCT belongs not below 1; to GTAGAAGAAATGAAAGAA, not below 1; to AGCCTCTTGACTTCCGAG, not below 1.
Consider AGAAGTTGGGAATCTGAA, for which the remaining target (mRNA or protein) (fraction of control) is not below 1.
As to ACCTTGTGTACCAACAGC, the remaining target (mRNA or protein) (fraction of control) was not below 1.
On to AGGAGGCGAGGAGAAAAG, for which the remaining target (mRNA or protein) (fraction of control) is not below 1.
Sequence AGCACCGAGTGCGTGAGC registered a remaining target (mRNA or protein) (fraction of control) of 0.72.

Another series deals with TERF1. The following applies: ASO.
Take TTTTACAAACACAATCAGTC: the remaining target (mRNA or protein) (fraction of control) came to 0.77.
Same read-out and setting: to ACAATCAGTCTTCGCTGTCT belongs 0.57.
Still for that read-out and setting: then CTGAGGAAACATCCTCCGCC, with 0.68.
Still for that read-out and setting: then AAGCTTTTACAAACACAATC, with not below 1; and TTACAAACACAATCAGTCTT, with 0.77; and TTTGTCCCATGGGTAATACT, with 0.97.
Regarding TTACTCTGTACATTTATCAT, the remaining target (mRNA or protein) (fraction of control) is not below 1.
On the same count and under the same terms, to TTAACTCTGGTAGCACAAAC belongs 0.59; to CTTTCTGAGAGATTATCAT, 0.93; to AGGTTTATCTTGAGAAGTTA, not below 1.
Still for that read-out and setting: to ATATTAAATGAAGGTATCAG belongs not below 1.
Still for that read-out and setting: to CTCGGCCACCAGGCCCGCGT belongs 0.82.
TAAGAAAAGATTCTTGTGAG yielded a remaining target (mRNA or protein) (fraction of control) of 0.71.
Still for that read-out and setting: then GAGGTTCAGTGAGCTGAAAT, with 0.81; and GGGTTACGTTACAGGGTTGA, with not below 1; and ACACAATCAGTCTTCGCTGT, with 0.64.
For the sequence TTTAGGCAGGACGCAGTGGC, the remaining target (mRNA or protein) (fraction of control) came to 0.47.
Sequence GAAACCCCGCCTCTACTAAA had a remaining target (mRNA or protein) (fraction of control) of 0.74.
On the same count and under the same terms, to GACATCAAGATGATCATAGT belongs not below 1.
On the same count and under the same terms, then GCCATGTTAAATGGCTCGAT, with 0.61; and GCAGGGTTCAACAAATTTAC, with 0.75.
Still for that read-out and setting: to AGTCTTCGCTGTCTGAGGAA belongs 0.59.
With CCAAATCATCAGGGCTGATT, the remaining target (mRNA or protein) (fraction of control) is not below 1.
As to GCCATTTTCCATACAAACAG, the remaining target (mRNA or protein) (fraction of control) amounted to 0.81.
Same read-out and setting: then CATCCTCCGCCATGTTAAAT, with 0.73.
In turn, TTTAGACCAGTTTCCCTCTC came in with a remaining target (mRNA or protein) (fraction of control) of 0.68.
In the case of ACTGGCAAGCTGTTAGACTG, the remaining target (mRNA or protein) (fraction of control) was determined as 0.49.
On the same count and under the same terms, to CTCGGAGCGGCCGTCGCGGA belongs 0.9.
In turn, CACAGTCCCCAGTAGGTAAG showed a remaining target (mRNA or protein) (fraction of control) of 0.56.
TTAAACACTGGAACAAAAGT had a remaining target (mRNA or protein) (fraction of control) not below 1.
Still for that read-out and setting: to GGCAGGTTTGTTAGCTGAGT belongs not below 1; to TAGGCATCAGGTTATAAAGA, 0.73.
The same measure, in the same setting: to AATCAGTCTTCGCTGTCTGA belongs not below 1; to TCAGTCTTCGCTGTCTGAGG, 0.46; to AAACACAATCAGTCTTCGCT, 0.93.
On to GGCTGACTCTTTGAAACAGG, for which the remaining target (mRNA or protein) (fraction of control) amounted to 0.6.
Sequence ACAAACACAATCAGTCTTCG came in with a remaining target (mRNA or protein) (fraction of control) not below 1.
Turning to TCTGCTCCTCAGTAGGGTCG, the remaining target (mRNA or protein) (fraction of control) is 0.68.
The same measure, in the same setting: to GCTTTTACAAACACAATCAG belongs 0.73; to CAAACAAAATGCAGTGATCA, 0.84.

For a further series, the target named is RHOB. The following applies: ASO.
In turn, GATGCAGCCGTTCTGGGA returned a remaining target (mRNA or protein) (fraction of control) not below 1.
GTTGATGCAGCCGTTCTG displayed a remaining target (mRNA or protein) (fraction of control) of 0.93.
The same measure, in the same setting: then CGGACATGCTCGTCGCTG, with not below 1; and TTACTGAACACGATCAGC, with not below 1; and CTCGTCCTTACTGAACAC, with 0.99.
The same measure, in the same setting: to GTCTTGGCAGAGCACTCG belongs 0.8; to ACGGGTTCCTGCTTCATG, not below 1; to GCACGTCTTGCCACACGC, not below 1.
Still for that read-out and setting: to GGGATGTTCTCCAGCGAG belongs 0.67; to CTCGAAGACCTCGCGCAC, not below 1; to TCGGCCACATAGTTCTCG, 0.87.
With ACCTCGCGCACGCCTTCC, the remaining target (mRNA or protein) (fraction of control) was not below 1.
AAGCACATGAGAATGACG came in with a remaining target (mRNA or protein) (fraction of control) not below 1.
The same measure, in the same setting: to TGTGCGGACATGCTCGTC belongs not below 1; to GTTCCTGCTTCATGCGGG, 0.73; to CGAAGACCTCGCGCACGC, not below 1.
Regarding CCGTCCACCTCAATGTCG, the remaining target (mRNA or protein) (fraction of control) was not below 1.
The same measure, in the same setting: to ACTGAACACGATCAGCAG belongs not below 1; to AGACCTCGCGCACGCCTT, 0.84.
Regarding CATAGTTCTCGAAGACGG, the remaining target (mRNA or protein) (fraction of control) is not below 1.
On the same count and under the same terms, to CGTGGCCGTCTCGAAGAC belongs not below 1.
Still for that read-out and setting: to CAGCAGTTGATGCAGCCG belongs 0.69.
The same measure, in the same setting: to GCCGTTCTGGGAGCCGTA belongs not below 1; to CCGTCGCCCACCACCACC, not below 1; to GAGTCCGGGCTGTCCACC, not below 1.
As for CCTTACTGAACACGATCA, the remaining target (mRNA or protein) (fraction of control) is not below 1.
The sequence TGCGGGCCAGCTCTGTGC returned a remaining target (mRNA or protein) (fraction of control) of 0.69.
The same measure, in the same setting: to GTCCTTACTGAACACGAT belongs 0.95.
Regarding CTCTGTGCGGACATGCTC, the remaining target (mRNA or protein) (fraction of control) came out at 0.61.
Regarding ATGTTCTCCAGCGAGTCC, the remaining target (mRNA or protein) (fraction of control) was not below 1.
Same read-out and setting: then AACTCGTCCTTACTGAAC, with 0.7.
On the same count and under the same terms, then GTTCTGGGAGCCGTAGCG, with 0.64; and GTAGTCGTAGGCTTGGAT, with 0.71.
Same read-out and setting: then CGAGGTAGTCGTAGGCTT, with 0.61; and AGCACCTTGCAGCAGTTG, with not below 1; and CCACCACCAGCTTCTTGC, with not below 1.
Sequence GACATGCTCGTCGCTGCG came in with a remaining target (mRNA or protein) (fraction of control) not below 1.
As for GCCGTCTCGAAGACCTCG, the remaining target (mRNA or protein) (fraction of control) is not below 1.
For CGGGCCAGCTCTGTGCGG, the remaining target (mRNA or protein) (fraction of control) turned out to be 0.62.
Same read-out and setting: then CCAGCTCTGTGCGGACAT, with 0.79.

Values taken from the OligoGym collection.
